{"source": "patent US6316414A", "about": "“Somatostatin analogs for the treatment of cancer” (Dabur Research Foundation, priority 2000, dated 2001)", "test_system": "human colon adenocarcinoma (PTC) xenografts", "assay": "In vivo antitumor activity on PTC xenografts in nude mice", "design": "species or system Balb/c athymic mice", "conditions": "for percentage inhibition of tumor growth as compared to controls: 8.5 μg/100 μl intravenously twice a day for 10 days", "protocol": "The antitumor activity of SEQ ID NO:2 and SEQ ID NO:3 was studied in human colon adenocarcinoma (PTC) xenografts in nude mice. PTC tumor xenografts were grown in Balb/c athymic mice by subcutaneous inoculation of a single cell suspension of PTC cells (15×10^6 cells/100 μl). The tumor bearing animals were divided into 3 groups of three animals each including one group comprising untreated control animals. Treatment with novel somatostatin analogs was initiated when the average tumor volumes, as measured using a vernier caliper, were between 400-800 mm^3. Solutions of SEQ ID NO:2 and SEQ ID NO:3 were prepared at a concentration of 85 μg/ml and intravenously administered to the assigned group of tumor bearing animals at a dose of 8.5 μg/100 μl twice a day so that the total dose of […] was administered to each animal. The treatment was continued for a period of 10 days.\nThe antitumor activity of the compounds was monitored by measuring tumor volumes every fourth day using the formula W*W*L*[…] (W=smaller diameter, L=larger diameter). The percentage inhibition of tumor growth was calculated using the formula (1-tumor volume-treated/tumor volume control)* 100.", "key": {"[1]": {"conditions": "day 0, average of three animals"}, "[2]": {"conditions": "day 9, average of three animals"}, "[3]": {"conditions": "day 13, average of three animals"}, "[4]": {"conditions": "day 18, average of three animals"}, "[5]": {"conditions": "day 21, average of three animals"}}}
{"substance": "D-Phe-Cys-Tyr-D-Trp-Orn-Ac5c-Pen-Thr-NH2 [SEQ ID NO: 3]", "values": [{"measurement": "tumor volume, individual animal", "setting": "animal I, day 0", "value": 0, "unit": "mm^3"}, {"measurement": "tumor volume, individual animal", "setting": "animal I, day 9", "value": 560, "unit": "mm^3"}, {"measurement": "tumor volume, individual animal", "setting": "animal I, day 13", "value": 1946, "unit": "mm^3"}, {"measurement": "tumor volume, individual animal", "setting": "animal I, day 18", "value": 3177, "unit": "mm^3"}, {"measurement": "tumor volume, individual animal", "setting": "animal I, day 21", "value": 0, "unit": "mm^3"}, {"measurement": "tumor volume, individual animal", "setting": "animal II, day 0", "value": 0, "unit": "mm^3"}, {"measurement": "tumor volume, individual animal", "setting": "animal II, day 9", "value": 774, "unit": "mm^3"}, {"measurement": "tumor volume, individual animal", "setting": "animal II, day 13", "value": 1800, "unit": "mm^3"}, {"measurement": "tumor volume, individual animal", "setting": "animal II, day 18", "value": 3610, "unit": "mm^3"}, {"measurement": "tumor volume, individual animal", "setting": "animal II, day 21", "value": 4939, "unit": "mm^3"}, {"measurement": "tumor volume, individual animal", "setting": "animal III, day 0", "value": 0, "unit": "mm^3"}, {"measurement": "tumor volume, individual animal", "setting": "animal III, day 9", "value": 324, "unit": "mm^3"}, {"measurement": "tumor volume, individual animal", "setting": "animal III, day 13", "value": 1530, "unit": "mm^3"}, {"measurement": "tumor volume, individual animal", "setting": "animal III, day 18", "value": 4234, "unit": "mm^3"}, {"measurement": "tumor volume, individual animal", "setting": "animal III, day 21", "value": 7301, "unit": "mm^3"}, {"measurement": "tumor volume, Avg", "setting": "[1]", "value": 0, "unit": "mm^3"}, {"measurement": "tumor volume, Avg", "setting": "[2]", "value": 552, "unit": "mm^3"}, {"measurement": "tumor volume, Avg", "setting": "[3]", "value": 1758, "unit": "mm^3"}, {"measurement": "tumor volume, Avg", "setting": "[4]", "value": 3674, "unit": "mm^3"}, {"measurement": "tumor volume, Avg", "setting": "[5]", "value": 4080, "unit": "mm^3"}, {"measurement": "percentage inhibition of tumor growth as compared to controls", "setting": "day 21", "value": 54.7, "unit": "%"}]}
{"substance": "D-Phe-Cys-Tyr-D-Trp-Orn-Deg-Pen-Thr-NH2 [SEQ ID NO: 2]", "values": [{"measurement": "tumor volume, individual animal", "setting": "animal IV, day 0", "value": 0, "unit": "mm^3"}, {"measurement": "tumor volume, individual animal", "setting": "animal IV, day 9", "value": 480, "unit": "mm^3"}, {"measurement": "tumor volume, individual animal", "setting": "animal IV, day 13", "value": 1254, "unit": "mm^3"}, {"measurement": "tumor volume, individual animal", "setting": "animal IV, day 18", "value": 1965, "unit": "mm^3"}, {"measurement": "tumor volume, individual animal", "setting": "animal IV, day 21", "value": 491, "unit": "mm^3"}, {"measurement": "tumor volume, individual animal", "setting": "animal V, day 0", "value": 0, "unit": "mm^3"}, {"measurement": "tumor volume, individual animal", "setting": "animal V, day 9", "value": 678, "unit": "mm^3"}, {"measurement": "tumor volume, individual animal", "setting": "animal V, day 13", "value": 2196, "unit": "mm^3"}, {"measurement": "tumor volume, individual animal", "setting": "animal V, day 18", "value": 5240, "unit": "mm^3"}, {"measurement": "tumor volume, individual animal", "setting": "animal V, day 21", "value": 4839, "unit": "mm^3"}, {"measurement": "tumor volume, individual animal", "setting": "animal VI, day 0", "value": 0, "unit": "mm^3"}, {"measurement": "tumor volume, individual animal", "setting": "animal VI, day 9", "value": 806, "unit": "mm^3"}, {"measurement": "tumor volume, individual animal", "setting": "animal VI, day 13", "value": 2333, "unit": "mm^3"}, {"measurement": "tumor volume, individual animal", "setting": "animal VI, day 18", "value": 4453, "unit": "mm^3"}, {"measurement": "tumor volume, individual animal", "setting": "animal VI, day 21", "value": 6250, "unit": "mm^3"}, {"measurement": "tumor volume, Avg", "setting": "[1]", "value": 0, "unit": "mm^3"}, {"measurement": "tumor volume, Avg", "setting": "[2]", "value": 654, "unit": "mm^3"}, {"measurement": "tumor volume, Avg", "setting": "[3]", "value": 1927, "unit": "mm^3"}, {"measurement": "tumor volume, Avg", "setting": "[4]", "value": 3886, "unit": "mm^3"}, {"measurement": "tumor volume, Avg", "setting": "[5]", "value": 3860, "unit": "mm^3"}, {"measurement": "percentage inhibition of tumor growth as compared to controls", "setting": "day 21", "value": 57.1, "unit": "%"}]}
